Data published in patent publication US20230234983A1, “SQUALAMINE CRYSTALLINE POLYMORPHS” (Enterin, Inc., priority 2022, published 2023).
Entries after “also recorded” stand apart in the source; their conditions may differ.

Key:
Format in all cases: physicochemical
[1] = Physical stability upon exposure to AAC (40° C./75% RH) for 2 days, remeasured by HT-XRPD; details: for solid form conversion upon exposure to AAC: HT-XRPD
Protocol: (§1) The solvent equilibration experiments were incubated in the Crystal16™ parallel crystallization reactor at 5, 25 and 50° C. for 3 days. Up on completion of the ageing time, the solids were separated from the liquid phases, dried at ambient conditions and under vacuum, and analyzed by HT-XRPD. Afterwards, all solids were exposed to AAC (40° C./75% RH) for 2 days and remeasured by HT-XRPD. The liquids were analyzed by Karl Fisher to estimate the water content. The experimental details and results are reported in Table 9, Table 10 and Table 11.
(§2) Upon completion of the equilibration time, the solids were dried at ambient conditions and under vacuum (5 mbar/50° C./overnight) and analyzed by HT-XRPD. Afterwards, all solids were exposed to AAC (40° C./75% RH) for 2 days and remeasured by HT-XRPD.
as §2, with “Table 11: Experimental details and results of equilibration experiments performed at 50° C. for 1 week. Upon” for “Upon”, “mbar/RT/overnight)” for “mbar/50° C./overnight)”

[2] = Physical stability upon drying under vacuum, HT-XRPD
Protocol: as §1, §2
Thermocycling experiments were started by preparing suspensions of Form B1 in the selected anhydrous solvents. The suspensions were subjected to a temperature profile between 50 and 5° C., followed by aging at 25° C. for 72 hours. Upon completion of the aging time, the solids were separated from the liquid phases, dried at ambient conditions and under vacuum, and measured by HT-XRPD. When solutions were recovered, those were left to evaporate at ambient conditions.

[3] = Physical stability of Form B1 at three storage conditions (Example 10)
Protocol: Solid samples of Form B 1 was incubated at three different conditions to test physical stability: 80° C., closed vial, 24 hours; 60° C./29% RH, open vial, 48 hours; and 40° C./75% RH, open vial, 48 hours. The solids recovered after the stability studies were analyzed by HIR-XRPD, TGMS, and DSC.

[4] = Investigation under variable RH levels by DVS and XRPD
Protocol: The powder data were collected on D8 Advance diffractometer using Cu Kα1 radiation (1.54056 Å) with germanium monochromator at 30° C. using the SYCOS H-HOT hot humid chamber produced by Ansyco GmbH. The data were collected in the Bragg-Brentano geometry (locked coupled) from 8 to 35θ 2θ on the flat sample holder (without rotation) on solid state LynxEye detector with 0.018θ per step with 1 sec/step scan speed. After reaching demanded humidity the sample was relaxed for 5 minutes before measurement. The sample was optionally measured with 2 seconds per step and in the last measurement at RH 000 the relaxation time was elongated to 30 min.

[5] = sample recovered from thermocycling in ethyl acetate

## CC(C)[C@@H](CC[C@@H](C)[C@H]1CCC2C3C(CC[C@@]21C)[C@@]1(C)CC[C@H](NCCCNCCCCN)C[C@@H]1C[C@H]3O)OS(=O)(=O)O.O=P(O)(O)O (stereo in doubt) [Form D, squalamine phosphate]
[1]
  physical stability upon exposure to AAC: physically unstable
  solid form conversion upon exposure to AAC: converted to a mixture containing Form A1 and an unknown phase

## CC(C)[C@@H](CC[C@@H](C)[C@H]1CC[C@H]2[C@@H]3[C@H](O)C[C@H]4C[C@@H](NCCCNCCCCN)CC[C@]4(C)[C@H]3CC[C@]12C)OS(=O)(=O)O.O=P(O)(O)O [Form A1, squalamine phosphate]
[2]; vacuum-dried, in some cases
  solid form conversion in vacuum-dried solids of the hydrate screen: converted to the mixed hydrate/solvate Form A2, or to the low-degree hydrates B1 and B2

## CC(C)[C@@H](CC[C@@H](C)[C@H]1CC[C@H]2[C@@H]3[C@H](O)C[C@H]4C[C@@H](NCCCNCCCCN)CC[C@]4(C)[C@H]3CC[C@]12C)OS(=O)(=O)O.O=P(O)(O)O [Form A2, squalamine phosphate]
[1]
  physical stability upon exposure to AAC: physically unstable
[1]; listed as A2
  solid form conversion upon exposure to AAC: converted to Form A1

## CC(C)[C@@H](CC[C@@H](C)[C@H]1CC[C@H]2[C@@H]3[C@H](O)C[C@H]4C[C@@H](NCCCNCCCCN)CC[C@]4(C)[C@H]3CC[C@]12C)OS(=O)(=O)O.O=P(O)(O)O [Form B1, squalamine phosphate]
[3]
  RH at which the form already absorbs water, converting to Form A1: 29 % RH
[3]; TGMS of solid recovered after 40° C./75% RH, open vial 48 h
  Mass loss (%): 8.9%
[3]; TGMS of solid recovered after 60° C./29% RH, open vial 48 h
  Mass loss (%): 9.0%
[3]; TGMS of solid recovered after 80° C., closed vial, 24 h
  Mass loss (%): 1.8%
[1]; listed as B1
  solid form conversion upon exposure to AAC: converted to Form A1

## CC(C)[C@@H](CC[C@@H](C)[C@H]1CC[C@H]2[C@@H]3[C@H](O)C[C@H]4C[C@@H](NCCCNCCCCN)CC[C@]4(C)[C@H]3CC[C@]12C)OS(=O)(=O)O.O=P(O)(O)O [Form B2, squalamine phosphate]
[2]; [5]
  physical stability upon drying: not physically stable
  solid form conversion upon drying: converted to a mixture of Forms A1 and D
[2]; samples recovered from 1-propanol and THE
  physical stability upon drying: stable
[1]; listed as B2
  solid form conversion upon exposure to AAC: converted to Form A1; also recorded: conversion to Form A1

## CC(C)[C@@H](CC[C@@H](C)[C@H]1CC[C@H]2[C@@H]3[C@H](O)C[C@H]4C[C@@H](NCCCNCCCCN)CC[C@]4(C)[C@H]3CC[C@]12C)OS(=O)(=O)O.O=P(O)(O)O [Form C, squalamine phosphate]
[4]
  behaviour on release of water at low RH levels or at high temperature: converting to Form A1

## CC(C)[C@@H](CC[C@@H](C)[C@H]1CC[C@H]2[C@@H]3[C@H](O)C[C@H]4C[C@@H](NCCCNCCCCN)CC[C@]4(C)[C@H]3CC[C@]12C)OS(=O)(=O)O.O=P(O)(O)O [Form E, squalamine phosphate]
[2]; 5 mbar/50° C./overnight, solid from thermocycling in methanol
  solid form conversion upon drying under vacuum: converted to Form F; also recorded: conversion to a poorly crystalline phase, classified as Form F
[2]; upon drying at 50° C.
  Physical Stability: Unstable upon
[1]; listed as E
  solid form conversion upon exposure to AAC: converted to Form A1

## CC(C)[C@@H](CC[C@@H](C)[C@H]1CC[C@H]2[C@@H]3[C@H](O)C[C@H]4C[C@@H](NCCCNCCCCN)CC[C@]4(C)[C@H]3CC[C@]12C)OS(=O)(=O)O.O=P(O)(O)O [Form F, squalamine phosphate]
[1]; listed as F
  solid form conversion upon exposure to AAC: converted to Form A1
